Assay results reported in US20250382296A1, “NITROGEN-CONTAINING FUSED THREE RING PRMT5 INHIBITOR, AND PREPARATION METHOD THEREFOR AND PHARMACEUTICAL USE THEREOF” (Abbisko Therapeutics Co., Ltd., priority 2022, published 2025).

Assays:
[1] = tested on: HCT 116 wild-type MTAP cells; assay: Inhibition of proliferation of HCT116 wild-type MTAP cells (CellTiter-Glo, 6 days); assay type: cell-based; conditions: Homo sapiens, HCT-116, 144 h
Procedure: (§1) 1. HCT 116 MTAP-knockout cells and HCT 116 wild-type MTAP cells were plated in 96-well flat-bottom plates and cultured overnight at 37° C. and […] in McCoy's 5A medium containing 10% fetal bovine serum+1% penicillin-streptomycin.
(§2) 2. The next day, compounds were each dissolved in DMSO, diluted successively with DMSO and medium and then transferred to cell plates; the final concentration of each compound was 10 μM, 4-fold dilution was performed to obtain 9 concentration points, and a DMSO control was provided.
(§3) 3. Cells not treated with compound were subjected to CellTiter-Glo Luminescent Cell Viability Assay (Promega) to detect the cell viability, and reference was made to the kit instructions for the operation; the plates were then placed on an EnVision Multilabel Reader to detect luminescence signals.
(§4) 4. Meanwhile, the cell plates containing cells treated with compounds were cultured continuously at 37° C. and […] CO2 for 6 days.
(§5) 5. Then, the cell viability was also detected by CellTiter-Glo.
(§6) 6. Finally, dose response curves were plotted using the four parameter dose response curve module of GraphPad Prism v 9.2.0 software and proliferation inhibition IC50 (unit: nM) was calculated.

[2] = tested on: HCT 116 MTAP-knockout cells; assay: Inhibition of proliferation of HCT116 MTAP-knockout cells (CellTiter-Glo, 6 days); assay type: cell-based, human; conditions: for IC50: Homo sapiens, HCT-116, 144 h, proliferation inhibition, HCT116 MTAP-knockout, 6 days, CellTiter-Glo; for Selectivity: IC50 HCT116 wild-type cells / IC50 HCT116 MTAP-knockout cells
Procedure: as §1, §2, §3, §4, §5, §6

SMILES | IC50 [1] | IC50 [2] | Selectivity [2]
C[Si](C)(C)CCOCn1cc(N(C(=O)c2ccc3nc(N)c4cncn4c3c2)[C@@H]2COc3cc(C(F)(F)F)ccc32)cn1 [Example 217, (S)-4-amino-N-(6-(trifluoromethyl)-2,3-dihydrobenzofuran-3-yl)-N-(1-((2-(trimethylsilyl)ethoxy)methyl)-1H-pyrazol-4-yl)imidazo[1,5-a]quinoxaline-8-carboxamide] | 546 nM | 41 nM | 13.3
C[C@@H]1CCN(C(=O)c2ccc3nc(N)c4cncn4c3c2)[C@@H](c2ccc3scnc3c2)C1 [Example 225, (4-aminoimidazo[1,5-a]quinoxalin-8-yl)((2R,4R)-2-(benzo[d]thiazol-5-yl)-4-methylpiperidin-1-yl)methanone] | > 10000 nM | 499 nM | >20
Cc1cc2nc(N)c3cncn3c2cc1C(=O)N1CC[C@@H](C)C[C@@H]1c1ccc2scnc2c1 [Example 226, (4-amino-7-methylimidazo[1,5-a]quinoxalin-8-yl)((2R,4R)-2-(benzo[d]thiazol-5-yl)-4-methylpiperidin-1-yl)methanone] | > 10000 nM | 322 nM | >31
C[C@H]1CC[C@H](c2ccc3scnc3c2)N(C(=O)c2ccc3nc(N)c4cncn4c3c2)C1 [Example 227, (4-aminoimidazo[1,5-a]quinoxalin-8-yl)((2R,5S)-2-(benzo[d]thiazol-5-yl)-5-methylpiperidin-1-yl)methanone] | 3440 nM | 12 nM | 283
Cc1cc2nc(N)c3cncn3c2cc1C(=O)N1C[C@@H](C)CC[C@@H]1c1ccc2scnc2c1 [Example 228, (4-amino-7-methylimidazo[1,5-a]quinoxalin-8-yl)((2R,5S)-2-(benzo[d]thiazol-5-yl)-5-methylpiperidin-1-yl)methanone] | 5320 nM | 102 nM | 52.1
Cc1cc2nc(N)c3cncn3c2cc1C(=O)N(C)Cc1ccc(C(F)(F)F)cn1 [Example 230, 4-amino-N,7-dimethyl-N-((5-(trifluoromethyl)pyridin-2-yl)methyl)imidazo[1,5-a]quinoxaline-8-carboxamide] | 7570 nM | 108 nM | 70.1
Cc1cc2nc(N)c3cnc(C)n3c2cc1C(=O)N(C)Cc1ccc(C(F)(F)F)cn1 [Example 231, 4-amino-N,1,7-trimethyl-N-((5-(trifluoromethyl)pyridin-2-yl)methyl)imidazo[1,5-a]quinoxaline-8-carboxamide] | > 10000 nM | 174 nM | >57.5

Continued by falling IC50 [1], values first:

IC50 [1] | IC50 [2] | SMILES | Selectivity [2]
934 nM | 16 nM | Cc1ncc2c(N)nc3ccc(C(=O)N(c4cnn(C)c4)[C@@H]4COc5cc(C(F)(F)F)ccc54)cc3n12 [Example 229, (S)-4-amino-1-methyl-N-(1-methyl-1H-pyrazol-4-yl)-N-(6-(trifluoromethyl)-2,3-dihydrobenzofuran-3-yl)imidazo[1,5-a]quinoxaline-8-carboxamide] | 58.4
564 nM | 17 nM | Cn1cc(N(C(=O)c2cc3c(cc2F)nc(N)c2cccn23)[C@@H]2COc3cc(C(F)(F)F)ccc32)cn1 [Example 233, (S)-4-amino-7-fluoro-N-(1-methyl-1H-pyrazol-4-yl)-N-(6-(trifluoromethyl)-2,3-dihydrobenzofuran-3-yl)pyrrolo[1,2-a]quinoxaline-8-carboxamide] | 33.2
257 nM | 3 nM | Cn1cc(N(C(=O)c2cc3c(cc2F)nc(N)c2cncn23)[C@@H]2COc3nc(C(F)(F)F)ccc32)cn1 [Example 219, (S)-4-amino-7-fluoro-N-(1-methyl-1H-pyrazol-4-yl)-N-(6-(trifluoromethyl)-2,3-dihydrofuro[2,3-b]pyridin-3-yl)imidazo[1,5-a]quinoxaline-8-carboxamide] | 85.7
47 nM | 2 nM | Cn1cc(N(C(=O)c2cc3c(cc2F)nc(N)c2cncn23)[C@@H]2COc3cc(C(F)(F)F)ccc32)cn1 [Example 218, (S)-4-amino-7-fluoro-N-(1-methyl-1H-pyrazol-4-yl)-N-(6-(trifluoromethyl)-2,3-dihydrobenzofuran-3-yl)imidazo[1,5-a]quinoxaline-8-carboxamide] | 23.5
